Earlier results on one compound are cited in US10568936B2, “Pharmaceutical composition for transmucosal delivery and methods for treating diabetes in a subject in need thereof” (Eastgate Pharmaceuticals Inc., priority 2014, dated 2020).

For data set [1] the following is noted: eutectic mixture with menthol.

With `C[C@]12CC[C@H]3[C@@H](CCC4=CC(=O)CC[C@@]43C)[C@@H]1CC[C@@H]2O` [testosterone], for the setting “eutectic mixture with menthol”, the “Increase in the flux of testosterone” value is listed as 2.8 fold. Moreover, the “Further increase in skin flux” value (high concentration of menthol) is on record as “eight times the base line”. Further, in data set [1], the “Increase in the solubility of testosterone in an aqueous ethanol vehicle” value was 2.8 fold.
